From ChEMBL document CHEMBL5331098, “Nanomolar β-glucosidase and β-galactosidase inhibition by enantiomeric α-1-C-alkyl-1,4-dideoxy-1,4-imino-arabinitol derivatives” (Eur J Med Chem, 2023)

What was measured:
[1] = target: Alpha-glucosidase (Saccharomyces cerevisiae S288c) (UniProt P53341+P38158+P07265); test: Inhibition of yeast alpha-glucosidase assessed as reduction of p-nitrophenol release using p-nitrophenyl glycoside as substrate at 1000 uM by spectrophotometric analysis relative to control; type: protein assay
Oryza sativa = test: Inhibition of rice alpha-glucosidase assessed as reduction of p-nitrophenol release using p-nitrophenyl glycoside as substrate at 1000 uM by spectrophotometric analysis relative to control
[2] = Inhibition of rat intestinal maltase assessed as D-glucose release using maltose as substrate at pH 6.8 by colorimetric method
Prunus dulcis = test: Inhibition of almond beta-glucosidase assessed as reduction of p-nitrophenol release using p-nitrophenyl glycoside as substrate at 1000 uM by spectrophotometric analysis relative to control
Bos taurus [3] = species: Bos taurus; test: Inhibition of bovine liver beta-glucosidase assessed as reduction of p-nitrophenol release using p-nitrophenyl glycoside as substrate at 1000 uM by spectrophotometric analysis relative to control
[4] = Inhibition of human lysosomal beta-glucosidase assessed as reduction of p-nitrophenol release using p-nitrophenyl glycoside as substrate by spectrophotometric analysis
[5] = target: Alpha-galactosidase (Coffea arabica) (UniProt Q42656); test: Inhibition of coffee beans alpha-galactosidase assessed as reduction of p-nitrophenol release using p-nitrophenyl glycoside as substrate at 1000 uM by spectrophotometric analysis relative to control
Sequence of Alpha-galactosidase (Coffea arabica) (Q42656 16-378 limits assumed): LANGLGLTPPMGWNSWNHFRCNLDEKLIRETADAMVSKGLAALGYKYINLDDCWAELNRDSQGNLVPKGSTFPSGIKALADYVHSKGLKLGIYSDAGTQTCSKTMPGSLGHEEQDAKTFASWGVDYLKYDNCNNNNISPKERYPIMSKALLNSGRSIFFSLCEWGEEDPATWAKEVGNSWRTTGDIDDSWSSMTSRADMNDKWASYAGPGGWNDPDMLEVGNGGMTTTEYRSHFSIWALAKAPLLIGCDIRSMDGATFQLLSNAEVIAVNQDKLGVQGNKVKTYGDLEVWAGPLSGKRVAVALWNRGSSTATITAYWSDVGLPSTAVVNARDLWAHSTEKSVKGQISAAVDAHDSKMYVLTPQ

Bos taurus [6] = species: Bos taurus; test: Inhibition of bovine liver beta-galactosidase assessed as reduction of p-nitrophenol release using p-nitrophenyl glycoside as substrate at 1000 uM by spectrophotometric analysis relative to control
[7] = target: T1, Alpha-mannosidase (Canavalia ensiformis) (UniProt C0HJB3); test: Inhibition of jack bean alpha-mannosidase assessed as reduction of p-nitrophenol release using p-nitrophenyl glycoside as substrate at 1000 uM by spectrophotometric analysis relative to control
T1 sequence (whole entry): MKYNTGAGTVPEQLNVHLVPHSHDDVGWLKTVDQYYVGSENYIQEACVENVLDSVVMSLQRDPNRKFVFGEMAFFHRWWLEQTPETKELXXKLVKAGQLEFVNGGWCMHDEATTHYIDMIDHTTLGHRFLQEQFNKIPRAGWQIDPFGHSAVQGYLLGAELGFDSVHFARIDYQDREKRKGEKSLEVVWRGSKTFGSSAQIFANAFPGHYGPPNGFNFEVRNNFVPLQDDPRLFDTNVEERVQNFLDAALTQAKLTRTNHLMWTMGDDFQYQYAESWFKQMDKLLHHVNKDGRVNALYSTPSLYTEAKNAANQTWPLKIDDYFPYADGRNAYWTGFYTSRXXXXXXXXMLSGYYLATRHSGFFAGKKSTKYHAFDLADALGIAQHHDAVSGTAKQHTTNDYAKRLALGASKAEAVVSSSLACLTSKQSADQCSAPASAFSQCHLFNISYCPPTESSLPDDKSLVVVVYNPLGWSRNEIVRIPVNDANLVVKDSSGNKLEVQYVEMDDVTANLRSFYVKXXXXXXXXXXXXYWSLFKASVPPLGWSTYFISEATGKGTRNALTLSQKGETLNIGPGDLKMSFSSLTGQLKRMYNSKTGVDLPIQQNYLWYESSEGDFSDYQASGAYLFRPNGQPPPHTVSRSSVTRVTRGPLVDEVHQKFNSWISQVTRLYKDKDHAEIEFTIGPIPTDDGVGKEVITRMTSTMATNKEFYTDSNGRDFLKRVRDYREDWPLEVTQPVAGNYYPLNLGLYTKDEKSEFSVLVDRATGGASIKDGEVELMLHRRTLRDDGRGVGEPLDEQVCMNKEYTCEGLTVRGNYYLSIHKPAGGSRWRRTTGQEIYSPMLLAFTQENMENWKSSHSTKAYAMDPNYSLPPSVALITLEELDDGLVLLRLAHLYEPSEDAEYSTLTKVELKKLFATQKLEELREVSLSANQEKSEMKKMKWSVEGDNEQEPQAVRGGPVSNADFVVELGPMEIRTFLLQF

Helix pomatia = test: Inhibition of snail beta-mannosidase assessed as reduction of p-nitrophenol release using p-nitrophenyl glycoside as substrate at 1000 uM by spectrophotometric analysis relative to control
[8] = target: T2, Tissue alpha-L-fucosidase (Bos taurus) (UniProt Q2KIM0); test: Inhibition of bovine kidney alpha-L-fucosidase assessed as reduction of p-nitrophenol release using p-nitrophenyl glycoside as substrate at 1000 uM by spectrophotometric analysis relative to control
T2 sequence (whole entry): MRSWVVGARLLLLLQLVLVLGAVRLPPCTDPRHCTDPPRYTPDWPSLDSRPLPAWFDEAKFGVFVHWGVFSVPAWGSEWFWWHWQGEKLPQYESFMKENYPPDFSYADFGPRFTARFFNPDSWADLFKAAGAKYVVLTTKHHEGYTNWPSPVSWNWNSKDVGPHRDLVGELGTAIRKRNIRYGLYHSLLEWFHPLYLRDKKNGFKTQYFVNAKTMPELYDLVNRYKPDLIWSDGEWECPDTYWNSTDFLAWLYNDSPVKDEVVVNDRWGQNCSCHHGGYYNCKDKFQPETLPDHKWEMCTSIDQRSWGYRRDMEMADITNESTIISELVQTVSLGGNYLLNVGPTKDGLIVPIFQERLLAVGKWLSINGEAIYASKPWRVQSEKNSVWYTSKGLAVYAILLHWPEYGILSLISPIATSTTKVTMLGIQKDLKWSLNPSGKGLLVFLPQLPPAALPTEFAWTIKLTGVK

Sus scrofa = species: Sus scrofa; test: Inhibition of porcine kidney alpha/alpha-trehalase assessed as reduction of p-nitrophenol release using p-nitrophenyl glycoside as substrate at 1000 uM by spectrophotometric analysis relative to control
Aspergillus niger = test: Inhibition of Aspergillus niger amyloglucosidase assessed as reduction of p-nitrophenol release using p-nitrophenyl-glycoside as substrate at 1000 uM by spectrophotometric analysis relative to control
Penicillium decumbens = test: Inhibition of Penicillium decumbens alpha-L-rhamnosidase assessed as reduction of p-nitrophenol release using p-nitrophenyl-glycoside as substrate at 1000 uM by spectrophotometric analysis relative to control
[9] = target: Beta-glucuronidase (Escherichia coli (strain K12)) (UniProt P05804); test: Inhibition of Escherichia coli beta-glucuronidase assessed as reduction of p-nitrophenol release using p-nitrophenyl-glycoside as substrate at 1000 uM by spectrophotometric analysis relative to control
Sequence of Beta-glucuronidase (Escherichia coli (strain K12)) (P05804 whole entry, looked up): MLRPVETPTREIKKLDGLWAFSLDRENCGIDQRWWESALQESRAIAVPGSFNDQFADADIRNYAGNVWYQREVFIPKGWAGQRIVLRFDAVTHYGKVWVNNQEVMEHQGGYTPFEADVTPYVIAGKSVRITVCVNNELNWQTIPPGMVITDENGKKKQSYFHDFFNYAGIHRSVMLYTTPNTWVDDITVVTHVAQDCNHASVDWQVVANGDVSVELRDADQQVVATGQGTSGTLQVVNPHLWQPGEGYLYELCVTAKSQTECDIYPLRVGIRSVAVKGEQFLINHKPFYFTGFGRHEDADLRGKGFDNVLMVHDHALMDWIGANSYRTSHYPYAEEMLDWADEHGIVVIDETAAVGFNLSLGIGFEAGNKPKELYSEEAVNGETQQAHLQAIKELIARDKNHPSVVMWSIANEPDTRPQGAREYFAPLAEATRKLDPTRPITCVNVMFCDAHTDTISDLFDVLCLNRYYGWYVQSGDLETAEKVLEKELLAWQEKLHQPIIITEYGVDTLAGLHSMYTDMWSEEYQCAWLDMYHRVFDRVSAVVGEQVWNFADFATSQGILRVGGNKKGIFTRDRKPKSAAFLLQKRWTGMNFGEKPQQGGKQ

Bos taurus [10] = species: Bos taurus; test: Inhibition of bovine liver beta-glucuronidase assessed as reduction of p-nitrophenol release using p-nitrophenyl-glycoside as substrate at 1000 uM by spectrophotometric analysis relative to control
[11] = Inhibition of human beta-glucosidase
Alpha-glucosidase = Alpha-glucosidase (Saccharomyces cerevisiae S288c, UniProt P53341+P38158+P07265); test: Inhibition of yeast alpha-glucosidase assessed as reduction of p-nitrophenol release using p-nitrophenyl glycoside as substrate by spectrophotometric analysis; type: protein assay
[12] = Inhibition of rice alpha-glucosidase assessed as reduction of p-nitrophenol release using p-nitrophenyl glycoside as substrate by spectrophotometric analysis; parameters: species or system Oryza sativa
[13] = Inhibition of almond beta-glucosidase assessed as reduction of p-nitrophenol release using p-nitrophenyl glycoside as substrate by spectrophotometric analysis; parameters: species or system Prunus dulcis
[14] = Inhibition of bovine liver beta-glucosidase assessed as reduction of p-nitrophenol release using p-nitrophenyl glycoside as substrate by spectrophotometric analysis; parameters: species or system Bos taurus
[15] = Inhibition of bovine liver beta-galactosidase assessed as reduction of p-nitrophenol release using p-nitrophenyl glycoside as substrate by spectrophotometric analysis; parameters: species or system Bos taurus
[16] = target: T3, Tissue alpha-L-fucosidase (Bos taurus, UniProt Q2KIM0); test: Inhibition of bovine kidney alpha-L-fucosidase assessed as reduction of p-nitrophenol release using p-nitrophenyl glycoside as substrate by spectrophotometric analysis
T3 sequence (Q2KIM0 whole entry): T2 sequence (whole entry)

[17] = Inhibition of Penicillium decumbens alpha-L-rhamnosidase assessed as reduction of p-nitrophenol release using p-nitrophenyl-glycoside as substrate by spectrophotometric analysis
Beta-glucuronidase = Beta-glucuronidase (Escherichia coli (strain K12), UniProt P05804); test: Inhibition of Escherichia coli beta-glucuronidase assessed as reduction of p-nitrophenol release using p-nitrophenyl-glycoside as substrate by spectrophotometric analysis
Sequence of Beta-glucuronidase (P05804 whole entry): as the sequence (P05804 whole entry, looked up) above

[18] = Inhibition of bovine liver beta-glucuronidase assessed as reduction of p-nitrophenol release using p-nitrophenyl-glycoside as substrate by spectrophotometric analysis; parameters: species or system Bos taurus
[19] = Inhibition of snail beta-mannosidase assessed as reduction of p-nitrophenol release using p-nitrophenyl glycoside as substrate by spectrophotometric analysis; parameters: species or system Helix pomatia
[20] = Inhibition of Aspergillus niger amyloglucosidase assessed as reduction of p-nitrophenol release using p-nitrophenyl-glycoside as substrate by spectrophotometric analysis
Rattus norvegicus = species: Rattus norvegicus; test: Inhibition of rat intestinal maltase assessed as D-glucose release using maltose as substrate at pH 6.8 at 1000 uM by colorimetric method relative to control
Alpha-galactosidase = Alpha-galactosidase (Coffea arabica, UniProt Q42656); test: Inhibition of coffee beans alpha-galactosidase assessed as reduction of p-nitrophenol release using p-nitrophenyl glycoside as substrate by spectrophotometric analysis
Sequence of Alpha-galactosidase (Q42656 whole entry): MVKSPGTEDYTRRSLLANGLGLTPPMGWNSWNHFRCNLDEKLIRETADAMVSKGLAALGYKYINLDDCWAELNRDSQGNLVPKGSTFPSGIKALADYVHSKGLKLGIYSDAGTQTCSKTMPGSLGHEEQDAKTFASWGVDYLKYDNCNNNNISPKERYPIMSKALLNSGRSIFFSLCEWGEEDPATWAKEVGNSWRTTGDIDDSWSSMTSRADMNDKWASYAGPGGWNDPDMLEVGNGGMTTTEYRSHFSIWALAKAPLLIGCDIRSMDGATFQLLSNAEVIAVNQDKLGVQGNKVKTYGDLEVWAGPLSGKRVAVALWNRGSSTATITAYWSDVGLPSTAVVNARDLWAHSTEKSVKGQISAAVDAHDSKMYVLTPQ

Alpha-mannosidase = target: T4, Alpha-mannosidase (Canavalia ensiformis, UniProt C0HJB3); test: Inhibition of jack bean alpha-mannosidase assessed as reduction of p-nitrophenol release using p-nitrophenyl glycoside as substrate by spectrophotometric analysis
T4 sequence (C0HJB3 whole entry): T1 sequence (whole entry)

Row | inhibition [1] | IC50 [2] | inhibition (Prunus dulcis) | inhibition (Bos taurus [3]) | IC50 [4] | inhibition [5] | inhibition [7] | inhibition (Helix pomatia) | inhibition [8] | inhibition (Sus scrofa) | inhibition (Aspergillus niger) | inhibition (Penicillium decumbens) | inhibition [9] | inhibition (Bos taurus [10]) | IC50 (Alpha-glucosidase) | IC50 [12] | IC50 [13] | IC50 [14] | IC50 [15] | IC50 (Beta-glucuronidase) | Structure (SMILES) | other results
1 | 11.4% | 28 µM | 9.6% | 21% | 109 µM | 1.3% | 0.8% | 0.4% | 0% | 0% | 8.7% | 0% | 4.8% | 0% | – | – | – | – | – | – | OC[C@@H]1N[C@@H]([C@H](O)CCCCCCc2ccc(Cl)cc2)[C@H](O)[C@H]1O | inhibition (Oryza sativa): 34%; inhibition (Bos taurus [6]): 37.3%
2 | – | – | – | – | – | – | – | – | – | – | – | – | – | – | – | – | – | – | – | – | CCCCCCCCCCCCCC1N[C@H](CO)[C@@H](O)[C@@H]1O (stereo not given in full) | IC50 [11]: 0.77 µM
3 | – | 1.9 µM | – | – | – | 12.1% | 14.7% | 6.7% | – | 5.6% | 7.2% | – | – | 41.5% | 802 µM | 11 µM | 206 µM | 305 µM | 16 µM | 133 µM | Cl.OC[C@@H]1N[C@@H](CCCCCCCc2ccccc2)[C@H](O)[C@H]1O | IC50 [16]: 91 µM; IC50 [17]: 409 µM
4 | 37.6% | 13 µM | 14.7% | 45.4% | 25 µM | 1.6% | 9.3% | 0% | 0% | 0% | 11.3% | 2.1% | 24.5% | – | – | 63 µM | – | – | 46 µM | – | Cc1ccc(CCCCCC[C@@H](O)[C@@H]2N[C@@H](CO)[C@H](O)[C@H]2O)cc1 | IC50 [18]: 65 µM
5 | – | 1.6 µM | – | – | – | 5% | 8.4% | – | 7.9% | 10.7% | – | 43.9% | – | 9.8% | 33 µM | 6.3 µM | 10 µM | 0.12 µM | 0.021 µM | 97 µM | OC[C@H]1N[C@H](CCCCCCCc2ccccc2)[C@@H](O)[C@@H]1O | IC50 [19]: 375 µM; IC50 [20]: 36 µM
6 | – | – | – | – | 3.3 µM | 8.6% | 13.9% | – | – | 0% | – | 4.1% | – | 7.1% | 83 µM | – | 0.15 µM | 0.009 µM | 0.005 µM | 36 µM | Cl.OC[C@H]1N[C@H]([C@H](O)CCCCCCc2ccc(F)cc2)[C@@H](O)[C@@H]1O | inhibition (Oryza sativa): 10.2%; inhibition (Rattus norvegicus): 24.2%; IC50 [19]: 20 µM; IC50 [20]: 30 µM
7 | 11.4% | 22 µM | 21.8% | 40% | 6.3 µM | 1% | 0% | 0.8% | 0% | 0% | 8.7% | 4.6% | 23.5% | 18.4% | – | 21 µM | – | – | 75 µM | – | CC(C)(C)c1ccc(CCCCCC[C@@H](O)[C@@H]2N[C@@H](CO)[C@H](O)[C@H]2O)cc1 | –
8 | – | 66.6 µM | – | – | – | 19.6% | 15.1% | – | 16.8% | 0.8% | – | 35.1% | – | 46.1% | 21.6 µM | 119 µM | 9.8 µM | 0.12 µM | 0.03 µM | 3.3 µM | O=C1CCCC=C1CCCCCCC[C@H]1N[C@H](CO)[C@@H](O)[C@@H]1O | IC50 [19]: 282 µM; IC50 [20]: 30 µM
9 | 21.1% | – | – | – | 5.2 µM | – | – | 3.6% | 32.7% | 3.5% | 6% | – | – | 12.7% | – | 85 µM | 464 µM | 64 µM | 22 µM | 75 µM | OC[C@H]1N[C@H](CCCCCCCc2ccccc2)[C@@H](O)[C@H]1O | inhibition (Rattus norvegicus): 43.3%; IC50 (Alpha-galactosidase): 41 µM; IC50 (Alpha-mannosidase): 274 µM; IC50 [17]: 313 µM
